Drawing on US20240217977A1, “DIAZEPANONE-FUSED PYRIMIDINE COMPOUNDS, COMPOSITIONS AND MEDICINAL APPLICATIONS THEREOF” (Blueprint Medicines Corporation, priority 2021, published 2024), this text covers IC50 and GI50 for 17 compounds.

Structures are written as SMILES.

In general, IC50 refers to the concentration that inhibits the measured activity by half.

Holding throughout (format): cell-based
One experiment concerns A431 cells. As to the kind of experiment: Cellular proliferation (Alamar Blue) assay, A431 cells. The note with it: Homo sapiens, A-431, 72 hr incubation. How it is done: (§1) Example 2: Cellular Proliferation (Alamar Blue) Assays
(§2) • 1. EGFR(D770_N771insSVD) expressing Ba/F3 stable cell line • 2. EGFR (A767_dupASV) expressing Ba/F3 stable cell line • 3. A431 cells • 4. EGFR (H773insNPH) expressing Ba/F3 stable cell line • 5. HER2 (A775_G775insYVMA) expressing Ba/F3 stable cell line
(§3) • 1. Seed cells at 5000 for A431 and 15,000 cells for Ba/F3 in 100 μL/well in complete media (for A431: DMEM with 10% FBS and for Ba/F3 cells: RPMI with 10% FBS) in • 96-well tissue culture plate. Leave outer wells without cells for background measurements. Incubate at 37 degree Celsius in 5% C02 humidified incubator for 16-18 hours. • 2. Add 0.025 ml of 5× concentration compound dilution or DMSO control. Final compound concentration range is 10-0.0005 μM prepared in 3-fold serial dilutions. Incubate for 72 hr at 37 degree Celsius in 5% CO2 humidified incubator. • 3. Add 0.0125 ml Alamar Blue™ reagent to each well with multi-channel pipette and tap gently on each side of the plate to mix. Incubate for 3 hours at 37 degree Celsius in 5% CO2 humidified incubator. • 4. Read plates on fluorescence reader (Tecan Spark Control, Device: Spark, Serial #: 1801006040) at 540 nm excitation, 590 nm emission wavelength. • 5. Data analysis was performed using XLfit 5.5.0.5.
A general note: Alamar Blue is a resazurin reagent that responds to reducing activity.

The target of experiment [1] is HER2 (A775_G775insYVMA) expressing Ba/F3 stable cell line (Homo sapiens, UniProt P04626, DUP772-775, cells depend on it). As to the kind of experiment: Cellular proliferation (Alamar Blue) assay, HER2 (A775_G775insYVMA) Ba/F3. The note with it: 72 hr incubation, read-out: YVMA IC50. As to the method: as §1, §2, §3
The target in experiment [2] is EGFR (A767_dupASV) expressing Ba/F3 stable cell line (Homo sapiens, UniProt P00533, DUP767-769, cells depend on it). The experiment is described as follows: Cellular proliferation (Alamar Blue) assay, EGFR (A767_dupASV) Ba/F3. Conditions: 72 hr incubation, read-out: A767 IC50. How it is done: as §1, §2, §3
Experiment [3] deals with EGFR(D770_N771insSVD) expressing Ba/F3 stable cell line (Homo sapiens, UniProt P00533, DUP768-770, cells depend on it). As to the kind of experiment: Cellular proliferation (Alamar Blue) assay, EGFR(D770_N771insSVD) Ba/F3. The note with it: 72 hr incubation, read-out: D770 IC50. How it is done:
as §1, §2, §3

Chain of EGFR(D770_N771insSVD) expressing Ba/F3 stable cell line (P00533 with tags, fused parts or gaps DUP768-770): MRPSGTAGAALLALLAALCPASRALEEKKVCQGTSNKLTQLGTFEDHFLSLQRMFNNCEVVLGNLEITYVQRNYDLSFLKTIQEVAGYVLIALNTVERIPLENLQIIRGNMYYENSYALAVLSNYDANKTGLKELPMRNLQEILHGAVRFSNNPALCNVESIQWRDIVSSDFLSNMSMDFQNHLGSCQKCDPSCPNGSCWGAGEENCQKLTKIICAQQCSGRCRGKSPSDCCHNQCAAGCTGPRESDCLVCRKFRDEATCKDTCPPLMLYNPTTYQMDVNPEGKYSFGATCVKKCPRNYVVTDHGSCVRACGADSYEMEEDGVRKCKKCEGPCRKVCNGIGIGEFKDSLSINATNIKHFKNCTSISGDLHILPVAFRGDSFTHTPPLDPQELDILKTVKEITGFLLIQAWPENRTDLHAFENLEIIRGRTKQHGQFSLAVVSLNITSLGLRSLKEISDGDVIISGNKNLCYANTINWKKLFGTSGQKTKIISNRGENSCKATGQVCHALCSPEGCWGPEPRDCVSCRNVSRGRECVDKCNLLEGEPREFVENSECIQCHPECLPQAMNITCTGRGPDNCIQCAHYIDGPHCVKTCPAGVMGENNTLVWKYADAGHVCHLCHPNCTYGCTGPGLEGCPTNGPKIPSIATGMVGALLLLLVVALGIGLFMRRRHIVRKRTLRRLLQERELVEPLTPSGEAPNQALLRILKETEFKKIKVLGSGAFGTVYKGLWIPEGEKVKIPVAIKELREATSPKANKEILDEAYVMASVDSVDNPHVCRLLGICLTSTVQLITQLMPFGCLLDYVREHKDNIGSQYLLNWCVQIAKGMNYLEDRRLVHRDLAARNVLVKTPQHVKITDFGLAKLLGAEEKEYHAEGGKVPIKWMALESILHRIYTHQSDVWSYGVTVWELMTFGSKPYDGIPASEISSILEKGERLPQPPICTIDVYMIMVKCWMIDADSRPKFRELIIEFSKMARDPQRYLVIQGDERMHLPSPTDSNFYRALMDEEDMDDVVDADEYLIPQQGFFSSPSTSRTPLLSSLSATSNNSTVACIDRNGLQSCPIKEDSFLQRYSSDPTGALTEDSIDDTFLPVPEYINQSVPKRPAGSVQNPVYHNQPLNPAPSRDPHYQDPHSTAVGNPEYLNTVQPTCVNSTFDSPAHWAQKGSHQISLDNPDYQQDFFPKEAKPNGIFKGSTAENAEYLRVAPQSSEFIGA
Chain of EGFR (A767_dupASV) expressing Ba/F3 stable cell line (P00533 with tags, fused parts or gaps DUP767-769): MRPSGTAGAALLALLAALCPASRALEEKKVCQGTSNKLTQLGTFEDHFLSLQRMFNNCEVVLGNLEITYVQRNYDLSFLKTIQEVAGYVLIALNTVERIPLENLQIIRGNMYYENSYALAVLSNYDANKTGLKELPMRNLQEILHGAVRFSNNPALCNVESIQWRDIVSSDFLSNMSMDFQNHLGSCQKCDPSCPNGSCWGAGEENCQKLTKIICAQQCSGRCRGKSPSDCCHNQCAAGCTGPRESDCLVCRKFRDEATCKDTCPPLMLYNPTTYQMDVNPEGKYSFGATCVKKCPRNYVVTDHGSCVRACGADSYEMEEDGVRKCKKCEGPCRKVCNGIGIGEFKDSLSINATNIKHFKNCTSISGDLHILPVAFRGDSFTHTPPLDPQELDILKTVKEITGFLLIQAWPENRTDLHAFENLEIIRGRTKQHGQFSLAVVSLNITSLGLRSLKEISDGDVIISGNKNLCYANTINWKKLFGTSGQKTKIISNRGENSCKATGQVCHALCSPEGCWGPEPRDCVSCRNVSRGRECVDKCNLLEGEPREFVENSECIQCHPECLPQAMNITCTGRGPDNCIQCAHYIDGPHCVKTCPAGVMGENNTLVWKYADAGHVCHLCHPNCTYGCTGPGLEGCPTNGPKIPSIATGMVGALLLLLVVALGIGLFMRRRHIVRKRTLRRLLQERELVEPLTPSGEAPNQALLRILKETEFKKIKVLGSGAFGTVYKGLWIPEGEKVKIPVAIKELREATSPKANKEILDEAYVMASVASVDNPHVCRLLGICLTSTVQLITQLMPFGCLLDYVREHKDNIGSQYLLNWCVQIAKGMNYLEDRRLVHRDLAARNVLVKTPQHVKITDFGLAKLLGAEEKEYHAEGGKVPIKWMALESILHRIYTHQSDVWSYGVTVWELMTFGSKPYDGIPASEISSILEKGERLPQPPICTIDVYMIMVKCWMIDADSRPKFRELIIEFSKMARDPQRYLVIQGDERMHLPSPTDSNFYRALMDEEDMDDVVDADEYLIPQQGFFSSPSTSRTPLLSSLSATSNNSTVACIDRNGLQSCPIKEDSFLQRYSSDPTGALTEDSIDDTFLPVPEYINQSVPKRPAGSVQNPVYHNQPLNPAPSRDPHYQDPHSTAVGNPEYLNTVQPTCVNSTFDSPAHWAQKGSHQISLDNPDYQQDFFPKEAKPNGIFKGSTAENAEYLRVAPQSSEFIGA
Chain of HER2 (A775_G775insYVMA) expressing Ba/F3 stable cell line (P04626 with tags, fused parts or gaps DUP772-775): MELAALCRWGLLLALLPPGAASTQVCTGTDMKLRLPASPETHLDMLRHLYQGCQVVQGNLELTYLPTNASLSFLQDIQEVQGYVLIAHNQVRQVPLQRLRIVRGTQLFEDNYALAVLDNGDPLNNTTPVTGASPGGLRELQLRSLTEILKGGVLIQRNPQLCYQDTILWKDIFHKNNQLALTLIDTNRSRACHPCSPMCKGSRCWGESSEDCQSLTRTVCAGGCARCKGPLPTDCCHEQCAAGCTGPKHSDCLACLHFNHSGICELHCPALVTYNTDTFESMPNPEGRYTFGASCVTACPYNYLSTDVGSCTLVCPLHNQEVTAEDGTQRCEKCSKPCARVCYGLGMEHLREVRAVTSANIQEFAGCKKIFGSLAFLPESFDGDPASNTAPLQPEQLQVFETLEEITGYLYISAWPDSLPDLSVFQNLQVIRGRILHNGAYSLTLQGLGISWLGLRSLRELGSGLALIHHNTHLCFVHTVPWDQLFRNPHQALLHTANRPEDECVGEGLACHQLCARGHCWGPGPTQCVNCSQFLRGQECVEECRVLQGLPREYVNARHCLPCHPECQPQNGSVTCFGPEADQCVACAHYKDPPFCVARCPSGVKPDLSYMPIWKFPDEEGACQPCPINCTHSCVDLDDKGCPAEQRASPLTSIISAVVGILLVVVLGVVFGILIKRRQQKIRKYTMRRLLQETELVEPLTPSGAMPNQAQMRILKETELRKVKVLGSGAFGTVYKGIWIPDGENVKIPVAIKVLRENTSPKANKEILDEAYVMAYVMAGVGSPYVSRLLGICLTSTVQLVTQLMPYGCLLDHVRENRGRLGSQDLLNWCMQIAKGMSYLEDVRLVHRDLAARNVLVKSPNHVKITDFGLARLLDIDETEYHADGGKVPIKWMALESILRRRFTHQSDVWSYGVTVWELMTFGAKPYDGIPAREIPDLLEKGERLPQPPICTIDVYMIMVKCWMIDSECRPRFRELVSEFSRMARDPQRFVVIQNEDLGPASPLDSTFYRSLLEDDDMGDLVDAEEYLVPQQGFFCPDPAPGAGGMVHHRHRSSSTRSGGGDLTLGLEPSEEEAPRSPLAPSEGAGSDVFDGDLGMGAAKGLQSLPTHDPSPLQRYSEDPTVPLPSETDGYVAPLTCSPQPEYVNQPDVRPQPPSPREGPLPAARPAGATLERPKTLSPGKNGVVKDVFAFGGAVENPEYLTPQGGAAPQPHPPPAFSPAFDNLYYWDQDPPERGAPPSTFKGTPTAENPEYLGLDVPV

`C/C=C/C(=O)Nc1cccc(N2C(=O)N(Cc3ccccc3)CCc3cnc(Nc4cn(C)nc4Cl)nc32)c1` [Compound 2, (E)-N-(3-(7-benzyl-2-((3-chloro-1-methyl-1H-pyrazol-4-yl)amino)-8-oxo-5,6,7,8-tetrahydro-9H-pyrimido[4,5-d][1,3]diazepin-9-yl)phenyl)but-2-enamide]: in the experiment on A431 cells, the half-maximal inhibitory concentration (IC50) is over 10000 nM. Moreover, the GI50 in experiment [1] turned out to be 243 nM; in experiment [2], 261 nM; in experiment [3], 249 nM.

Consider `CN(C)C/C=C/C(=O)Nc1cccc(N2C(=O)N(Cc3ccccc3)CCc3cnc(Nc4cn(C5CCN(C)CC5)nc4Cl)nc32)c1` [Compound 8, (E)-N-(3-(7-benzyl-2-((3-chloro-1-(1-methylpiperidin-4-yl)-1H-pyrazol-4-yl)amino)-8-oxo-5,6,7,8-tetrahydro-9H-pyrimido[4,5-d][1,3]diazepin-9-yl)phenyl)-4-(dimethylamino)but-2-enamide], for which the concentration for half-maximal inhibition (IC50) with A431 cells is 114 nM. In addition, the GI50 in experiment [2] was 329 nM; in experiment [3] it was 940 nM.

Consider `C=CC(=O)Nc1cccc(N2C(=O)N(Cc3ccccc3)CCc3cnc(Nc4cccnc4)nc32)c1` [Compound 12, N-(3-(7-benzyl-8-oxo-2-(pyridin-3-ylamino)-5,6,7,8-tetrahydro-9H-pyrimido[4,5-d][1,3]diazepin-9-yl)phenyl)acrylamide], for which the IC50 with A431 cells is over 10000 nM. Further, the GI50 in experiment [2] and in experiment [3] was over 10000 nM throughout.

`C=CC(=O)Nc1cccc(N2C(=O)N(Cc3ccccc3)CCc3cnc(NC4CCCC4)nc32)c1` [Compound 13, N-(3-(7-benzyl-2-(cyclopentylamino)-8-oxo-5,6,7,8-tetrahydro-9H-pyrimido[4,5-d][1,3]diazepin-9-yl)phenyl)acrylamide] had an IC50 in the experiment with A431 cells of over 10000 nM. Besides, the results for the GI50 in experiment [1], in experiment [2] and in experiment [3] were 1030 nM, 848 nM and 1060 nM, respectively.

As for `COc1cc(N2CCN(C)CC2)ccc1Nc1ncc2c(n1)N(c1cccc(NC(=O)/C=C/CN(C)C)c1)C(=O)N(Cc1ccccc1)CC2` [Compound 15, (E)-N-(3-(7-benzyl-2-((2-methoxy-4-(4-methylpiperazin-1-yl)phenyl)amino)-8-oxo-5,6,7,8-tetrahydro-9H-pyrimido[4,5-d][1,3]diazepin-9-yl)phenyl)-4-(dimethylamino)but-2-enamide], inhibition with A431 cells was half-maximal at 6020 nM (IC50). The results for the GI50 in experiment [1], in experiment [2] and in experiment [3] were 174 nM, 348 nM and 959 nM, respectively.

Consider `CN(C)C/C=C/C(=O)Nc1cccc(N2C(=O)N(Cc3ccccc3)CCc3cnc(Nc4ccc(N5CCN(C)CC5)nc4)nc32)c1` [Compound 17, (E)-N-(3-(7-benzyl-2-((6-(4-methylpiperazin-1-yl)pyridin-3-yl)amino)-8-oxo-5,6,7,8-tetrahydro-9H-pyrimido[4,5-d][1,3]diazepin-9-yl)phenyl)-4-(dimethylamino)but-2-enamide], for which, in the experiment with A431 cells, the IC50 is over 10000 nM. Also, the GI50 is 793 nM in experiment [1], 1130 nM in experiment [2] and 2770 nM in experiment [3].

In the experiment with A431 cells, `C=CC(=O)Nc1cccc(N2C(=O)N(C3CC3)CCc3cnc(Nc4cn(C)nc4Cl)nc32)c1` [Compound 20, N-(3-(2-((3-chloro-1-methyl-1H-pyrazol-4-yl)amino)-7-cyclopropyl-8-oxo-5,6,7,8-tetrahydro-9H-pyrimido[4,5-d][1,3]diazepin-9-yl)phenyl)acrylamide] yielded an IC50 of over 10000 nM. Besides, the GI50 in experiment [1] was 895 nM; in experiment [2] it was 225 nM; in experiment [3], 320 nM.

`Cc1cc(Nc2ncc3c(n2)N(c2cccc(NC(=O)/C=C/CN(C)C)c2)C(=O)N(Cc2ccccc2)CC3)ccc1N1CCN(C)CC1` [Compound 23, (E)-N-(3-(7-benzyl-2-((3-methyl-4-(4-methylpiperazin-1-yl)phenyl)amino)-8-oxo-5,6,7,8-tetrahydro-9H-pyrimido[4,5-d][1,3]diazepin-9-yl)phenyl)-4-(dimethylamino)but-2-enamide] had an IC50 in the experiment with A431 cells of 179 nM. Moreover, the GI50 came to 911 nM in experiment [2] and 933 nM in experiment [3].

As to `Cn1cc(Nc2ncc3c(n2)N(c2cccc(NC(=O)C(F)Cl)c2)C(=O)N(Cc2ccccc2)CC3)c(Cl)n1` (centres unmarked) [Compound 24, N-(3-(7-benzyl-2-((3-chloro-1-methyl-1H-pyrazol-4-yl)amino)-8-oxo-5,6,7,8-tetrahydro-9H-pyrimido[4,5-d][1,3]diazepin-9-yl)phenyl)-2-chloro-2-fluoroacetamide], in the experiment with A431 cells, the 50% inhibitory concentration (IC50) is over 10000 nM. Also, the GI50 in experiment [1] was 2000 nM; in experiment [2], 1150 nM; in experiment [3], 1090 nM.

`C=CC(=O)Nc1cccc(N2C(=O)N(Cc3ccccc3)CCc3cnc(NC4CCOCC4)nc32)c1` [Compound 25, N-(3-(7-benzyl-8-oxo-2-((tetrahydro-2H-pyran-4-yl)amino)-5,6,7,8-tetrahydro-9H-pyrimido[4,5-d][1,3]diazepin-9-yl)phenyl)acrylamide] gave a half-maximal inhibitory concentration (IC50) in the experiment on A431 cells of over 10000 nM. For the same compound, the GI50 in experiment [2] was 388 nM; in experiment [3] it was 492 nM.

On to `C=CC(=O)Nc1cccc(N2C(=O)N(Cc3ccccc3)CCc3cnc(NC4COC4)nc32)c1` [Compound 27, N-(3-(7-benzyl-2-(oxetan-3-ylamino)-8-oxo-5,6,7,8-tetrahydro-9H-pyrimido[4,5-d][1,3]diazepin-9-yl)phenyl)acrylamide], for which the IC50 in the experiment on A431 cells was over 10000 nM. Moreover, the results for the GI50 in experiment [2] and in experiment [3] were 606 nM and 611 nM, respectively.

`C/C=C/C(=O)Nc1cccc(N2C(=O)N(c3ccccc3)CCc3cnc(Nc4cn(C)nc4Cl)nc32)c1` [Compound 30, (E)-N-(3-(2-((3-chloro-1-methyl-1H-pyrazol-4-yl)amino)-8-oxo-7-phenyl-5,6,7,8-tetrahydro-9H-pyrimido[4,5-d][1,3]diazepin-9-yl)phenyl)but-2-enamide]: in the experiment on A431 cells, the IC50 is over 10000 nM. The values for the GI50 in experiment [1], in experiment [2] and in experiment [3] were 3320 nM, 993 nM and 1960 nM, respectively.

`CN(C)C/C=C/C(=O)Nc1cccc(N2C(=O)N(c3ccccc3)CCc3cnc(Nc4cn(C)nc4Cl)nc32)c1` [Compound 31, (E)-N-(3-(2-((3-chloro-1-methyl-1H-pyrazol-4-yl)amino)-8-oxo-7-phenyl-5,6,7,8-tetrahydro-9H-pyrimido[4,5-d][1,3]diazepin-9-yl)phenyl)-4-(dimethylamino)but-2-enamide]: in the experiment on A431 cells, the IC50 is over 10000 nM. In addition, the GI50 is 2420 nM in experiment [1], 2040 nM in experiment [2] and 3950 nM in experiment [3].

In the experiment with A431 cells, `Cc1cc(Nc2ncc3c(n2)N(c2cccc(NC(=O)/C=C/CN(C)C)c2)C(=O)N(c2ccccc2)CC3)ccc1N1CCN(C)CC1` [Compound 34, (E)-4-(dimethylamino)-N-(3-(2-((3-methyl-4-(4-methylpiperazin-1-yl)phenyl)amino)-8-oxo-7-phenyl-5,6,7,8-tetrahydro-9H-pyrimido[4,5-d][1,3]diazepin-9-yl)phenyl)but-2-enamide] returned an IC50 of 225 nM. The GI50 in experiment [2] was 2790 nM; in experiment [3], 3480 nM.

In the experiment on A431 cells, `C=CC(=O)Nc1cccc(N2C(=O)N(c3ccccc3)CCc3cnc(Nc4ccc(C5CCN(C)CC5)cc4)nc32)c1` [Compound 36, N-(3-(2-((4-(1-methylpiperidin-4-yl)phenyl)amino)-8-oxo-7-phenyl-5,6,7,8-tetrahydro-9H-pyrimido[4,5-d][1,3]diazepin-9-yl)phenyl)acrylamide] registered a concentration for half-maximal inhibition (IC50) of 20 nM. The GI50 in experiment [2] came out at 318 nM; in experiment [3] it was 325 nM.

For `CN(C)C/C=C/C(=O)Nc1cccc(N2C(=O)N(c3ccccc3)CCc3cnc(Nc4ccc(C5CCN(C)CC5)cc4)nc32)c1` [Compound 38, (E)-4-(dimethylamino)-N-(3-(2-((4-(1-methylpiperidin-4-yl)phenyl)amino)-8-oxo-7-phenyl-5,6,7,8-tetrahydro-9H-pyrimido[4,5-d][1,3]diazepin-9-yl)phenyl)but-2-enamide], the 50% inhibitory concentration (IC50) in the experiment on A431 cells came out at 370 nM. In addition, the GI50 in experiment [2] was found to be 9010 nM; in experiment [3] it was 989 nM.

As for `C=CC(=O)Nc1cccc(Nc2ncc3c(n2)N(C)C(=O)N(c2ccccc2)CC3)c1` [Compound 45, N-(3-((9-methyl-8-oxo-7-phenyl-6,7,8,9-tetrahydro-5H-pyrimido[4,5-d][1,3]diazepin-2-yl)amino)phenyl)acrylamide], in the experiment with A431 cells, the IC50 is 1220 nM. Moreover, the GI50 in experiment [2] and in experiment [3] was over 10000 nM throughout.
